In patent US6699868B2, “Pyridazinyl phenyl hydrazones useful against congestive heart failure” (Orion Corporation, priority 2000, dated 2004):

Row | melting point [°C] | SMILES
1 | 264 to 268 | COc1c(O)ccc(C=NNc2ccc(-c3n[nH]c(=O)cc3C)cc2)c1[N+](=O)[O-] [Example 22, 6-{4-[N′-(4-Hydroxy-3-methoxy-2-nitrobenzylidene)hydrazino]phenyl}-5-methyl-2H-pyridazin-3-one]
2 | 180 to 183 | COc1ccccc1C=NNc1ccc(C2=NNC(=O)CC2C)cc1 (stereo not shown) [Example 53, 6-{4-[N′-(2-Methoxy-benzylidene)-hydrazino]-phenyl}-5-methyl-4,5-dihydro-2H-pyridazin-3-one]
3 | 299 to 302 | CC1CC(=O)NN=C1c1ccc(NN=C(CCC(=O)O)c2ccc(O)cc2O)cc1 (stereo not shown) [Example 64, 4-(2,4-Dihydroxy-phenyl)-4-{[4-(4-methyl-6-oxo-1,4,5,6-tetrahydro-pyridazin-3-yl)-phenyl]-hydrazono}-butyric acid]
4 | 225 to 233 | CCC(=NNc1ccc(-c2ccc(=O)n(C)n2)cc1)c1ccc(O)cc1O [Example 27, 6-{4-{N′-[1-(2,4-Dihydroxyphenyl)propylidene]hydrazino}phenyl}-2-methyl-2H-pyridazin-3-one]
5 | 250 to 251 | CC1CC(=O)NN=C1c1ccc(C(=NN)c2ccccc2C(=O)O)cc1 (stereo not shown) [Example 10, 2-{[4-(4-Methyl-6-oxo-1,4,5,6-tetrahydro-pyridazin-3-yl)-phenyl]-hydrazonomethyl}-benzoic acid]
6 | 230 to 233 | CC1CC(=O)NN=C1c1ccc(NN=Cc2ccc(O)c([N+](=O)[O-])c2)cc1 (stereo not shown) [Example 63, 6-{4-[N′-(4-Hydroxy-3-nitro-benzylidene)-hydrazino]-phenyl}-5-methyl-4,5-dihydro-2H-pyridazin-3-one]
7 | 251 to 254 | COc1c(O)ccc(C(C)=NNc2ccc(C3=NNC(=O)CC3C)cc2)c1[N+](=O)[O-] (stereo not shown) [Example 67, 6-(4-{N′-[1-(4-Hydroxy-3-methoxy-2-nitro-phenyl)-ethylidene]-hydrazino}-phenyl)-5-methyl-4,5-dihydro-2H-pyridazin-3-one]
8 | 239 to 241 | CC1CC(=O)NN=C1c1ccc(NN=Cc2ccc(O)c(O)c2[N+](=O)[O-])cc1 (stereo not shown) [Example 9, 6-{4-[N′-(3,4-Dihydroxy-2-nitro-benzylidene)-hydrazino]-phenyl}-5-methyl-4,5-dihydro-2H-pyridazin-3-one]
9 | 265 to 268 | CC1CC(=O)NN=C1c1ccc(NN=Cc2ccccc2O)cc1 (stereo not shown) [Example 54, 6-{4-[N′-(2-Hydroxy-benzylidene)-hydrazino]-phenyl}-5-methyl-4,5-dihydro-2H-pyridazin-3-one]
10 | 270 to 275 | CCC1CC(=O)NN=C1c1ccc(NN=Cc2ccc(O)cc2O)cc1 (stereo not shown) [Example 36, 6-{4-[N′-(2,4-Dihydroxy-benzylidene)-hydrazino]-phenyl}-5-ethyl-4,5-dihydro-2H-pyridazin-3-one]
11 | 220 to 223 | COc1c(OC(C)=O)ccc(C(=NN)c2ccc(C3=NNC(=O)CC3C)cc2)c1[N+](=O)[O-] (stereo not shown) [Example 12, Acetic acid 2-Methoxy-4-{[4-(4-methyl-6-oxo-1,4,5,6-tetrahydro-pyridazin-3-yl)-phenyl]-hydrazonomethyl}-3-nitro-phenyl ester]
12 | 246 to 248 | CC1CC(=O)NN=C1c1ccc(C(=NN)c2ccc(C#N)cc2)cc1 (stereo not shown) [Example 60, 4-{[4-(4-Methyl-6-oxo-1,4,5,6-tetrahydro-pyridazin-3-yl)-phenyl]-hydrazonomethyl}-benzonitrile]
13 | 278 to 283 | O=c1[nH]nc(-c2ccc(NN=Cc3ccc(O)cc3O)cc2)c2ccccc12 [Example 18, 4-{4-[N′-(2,4-Dihydroxy-benzylidene)-hydrazino]-phenyl}-2H-phthalazin-1-one]
14 | 317 to 320 | CC1CC(=O)NN=C1c1ccc(NN=Cc2cc(O)ccc2O)cc1 (stereo not shown) [Example 8, 6-{4-[N′-(2,5-Dihydroxy-benzylidene)-hydrazino]-phenyl}-5-methyl-4,5-dihydro-2H-pyridazin-3-one]
15 | 267 to 270 | CC1CC(=O)NN=C1c1ccc(NN=Cc2cccc(O)c2)cc1 (stereo not shown) [Example 62, 6-{4-[N′-(3-Hydroxy-benzylidene)-hydrazino]-phenyl}-5-methyl-4,5-dihydro-2H-pyridazin-3-one]
16 | 220 to 224 | CC1CC(=O)NN=C1c1ccc(C(=NN)c2cccc(C#N)c2)cc1 (stereo not shown) [Example 20, 3-{[4-(4-Methyl-6-oxo-1,4,5,6-tetrahydropyridazin-3-yl)phenyl]-hydrazonomethyl}-benzonitrile]
17 | 278 to 280 | CC1CC(=O)NN=C1c1ccc(NN=Cc2ccc([N+](=O)[O-])cc2[N+](=O)[O-])cc1 (stereo not shown)
18 | 140 to 146 | O=c1[nH]nc(-c2ccc(NN=C(c3ccc(O)cc3O)c3ccc(O)cc3O)cc2)c2ccccc12 [Example 17, 4-(4-{N′-[Bis-(2,4-dihydroxy-phenyl)-methylene]-hydrazino}-phenyl)-2H-phthalazin-1-one]
19 | 150 to 160 | O=c1[nH]nc(-c2ccc(NN=C(c3ccc(O)cc3)c3ccc(O)cc3O)cc2)c2ccccc12 [Example 16, 4-(4-{N′-[(2,4-Dihydroxy-phenyl)-(4-hydroxy-phenyl)-methylene]-hydrazino}-phenyl)-2H-phthalazin-1-one]

Row | melting point [°C] | SMILES
20 | 304 to 306 | Cn1nc(-c2ccc(NN=Cc3ccc(O)cc3O)cc2)ccc1=O [Example 25, 6-{4-[N′-(2,4-Dihydroxybenzylidene)hydrazino]phenyl}-2-methyl-2H-pyridazin-3-one]
21 | 258 to 261 | CC1CC(=O)NN=C1c1ccc(NN=Cc2ccc(O)cc2)cc1 (stereo not shown) [Example 61, 6-{4-[N′-(4-Hydroxy-benzylidene)-hydrazino]-phenyl}-5-methyl-4,5-dihydro-2H-pyridazin-3-one]
22 | 138 to 141 | Cn1nc(-c2ccc(NN=C(CCC(=O)O)c3ccc(O)cc3O)cc2)ccc1=O [Example 29, 4-(2,4-Dihydroxyphenyl)-4-{[4-(1-methyl-6-oxo-1,6-dihydropyridazin-3-yl)phenyl]hydrazono}butyric acid]
23 | 172 to 174 | COc1ccc(C=NNc2ccc(C3=NNC(=O)CC3C)cc2)cc1 (stereo not shown) [Example 55, 6-{4-[N′-(4-Methoxy-benzylidene)-hydrazino]-phenyl}-5-methyl-4,5-dihydro-2H-pyridazin-3-one]
24 | 130 to 137 | CC1CC(=O)NN=C1c1ccc(NN=Cc2ccc(S(C)(=O)=O)cc2)cc1 (stereo not shown) [Example 19, 6-{4-[N′-(4-Methanesulfonylbenzylidene)hydrazino]phenyl}-5-methyl-4,5-dihydro-2H-pyridazin-3-one]
25 | 269 to 275 | CC(=O)Nc1ccc(C(=NN)c2ccc(C3=NNC(=O)CC3C)cc2)c(O)c1 (stereo not shown) [Example 41, N-(3-Hydroxy-4-{[4-(4-methyl-6-oxo-1,4,5,6-tetrahydro-pyridazin-3-yl)-phenyl]-hydrazonomethyl}-phenyl)-acetamide]
26 | 299 to 300 | CC1CC(=O)NN=C1c1ccc(NN=Cc2cc([N+](=O)[O-])ccc2O)cc1 (stereo not shown) [Example 5, 6-{4-[N′-(2-Hydroxy-5-nitro-benzylidene)-hydrazino]-phenyl}-5-methyl-4,5-dihydro-2H-pyridazin-3-one]
27 | 113 to 115 | CC1CC(=O)NN=C1c1ccc(NN=Cc2ccccc2C(F)(F)F)cc1 (stereo not shown) [Example 11, 6-{4-[N′-(2-trifluoromethyl-benzylidene)-hydrazino]-phenyl}-5-methyl-4,5-dihydro-2H-pyridazin-3-one]
28 | 210 to 213 | COc1cccc(C=NNc2ccc(C3=NNC(=O)CC3C)cc2)c1O (stereo not shown) [Example 57, 6-{4-[N′-(2-Hydroxy-3-methoxy-benzylidene)-hydrazino]-phenyl}-5-methyl-4,5-dihydro-2H-pyridazin-3-one]
29 | 268 to 270 | CC(=O)c1c(O)ccc(C=NNc2ccc(C3=NNC(=O)CC3C)cc2)c1O (stereo not shown) [Example 39, 6-{4-[N′-(3-Acetyl-2,4-dihydroxy-benzylidene)-hydrazino]-phenyl}-5-methyl-4,5-dihydro-2H-pyridazin-3-one]
30 | 216 to 217 | CC1CC(=O)NN=C1c1ccc(NN=Cc2ccc([N+](=O)[O-])cc2)cc1 (stereo not shown) [Example 52, 6-{4-[N′-(4-nitrobenzylidene)-hydrazino]-phenyl}-5-methyl-4,5-dihydro-2H-pyridazin-3-one]
31 | 135 to 140 | COc1ccc(CCC(=NNc2ccc(C3=NNC(=O)CC3C)cc2)c2ccc(O)cc2O)cc1OC (stereo not shown) [Example 14, 6-(4-{N′-[1-(2,4-Dihydroxy-phenyl)-3-(3,4-dimethoxy-phenyl)-propylidene]-hydrazino}-phenyl)-5-methyl-4,5-dihydro-2H-pyridazin-3-one]
32 | 162 to 166 | CC(=NNc1ccc(C2=NNC(=O)CC2C)cc1)c1cc(O)cc(O)c1 (stereo not shown) [Example 13, 6-(4-{N′-[1-(3,5-Dihydroxy-phenyl)-ethylidene]-hydrazino}-phenyl)-5-methyl-4,5-dihydro-2H-pyridazin-3-one]
33 | 203 to 208 | CCOC(=O)c1c(O)ccc(C(=NN)c2ccc(C3=NNC(=O)CC3C)cc2)c1O (stereo not shown) [Example 3, 2,6-Dihydroxy-3-{[4-(4-methyl-6-oxo-1,4,5,6-tetrahydro-pyridazin-3-yl)-phenyl]-hydrazonomethyl}-benzoic acid Ethyl Ester]
34 | 250 to 253 | CC1CC(=O)NN=C1c1ccc(NN=Cc2ccccc2[N+](=O)[O-])cc1 (stereo not shown) [Example 58, 6-{4-[N′-(2-nitro-benzylidene)-hydrazino]-phenyl}-5-methyl-4,5-dihydro-2H-pyridazin-3-one]
35 | 235 to 240 | CC1CC(=O)NN=C1c1ccc(NN=C(CCCC(=O)O)c2ccc(O)cc2O)cc1 (stereo not shown) [Example 66, 5-(2,4-Dihydroxy-phenyl)-5-{[4-(4-methyl-6-oxo-1,4,5,6-tetrahydro-pyridazin-3-yl)-phenyl]-hydrazono}-pentanoic acid]
36 | 216 to 218 | CC1CC(=O)NN=C1c1ccc(NN=Cc2c([N+](=O)[O-])cccc2[N+](=O)[O-])cc1 (stereo not shown)
37 | 252 to 254 | CC1CC(=O)NN=C1c1ccc(NN=Cc2ccc(Cl)cc2Cl)cc1 (stereo not shown) [Example 42, 6-{4-[N′-(2,4-Dichloro-benzylidene)-hydrazino]-phenyl}-5-methyl-4,5-dihydro-2H-pyridazin-3-one]
